In brackets after ≈: the same amount, converted by molar mass. Where two headings read alike, the source gives them in different places.
Experiments:
AGE formation = test: Bovine serum albumin-methylglyoxal analysis, AGE formation (intermediate stage); format: biochemical
Method: (2) Bovine Serum Albumin—Methylglyoxal Analysis with Respect to AGE Formation (Intermediate Stage)
Bovine serum albumin (50 mg/mL) was incubated with methylglyoxal (100 mM) in a sodium phosphate buffer ([…], pH 7.4) at 37° C. for 24 hours in the presence of various concentrations of compounds (including a control group).
All reagents and samples were sterilized by filtration through […] membrane filters. Fluorescence intensity was measured at an excitation wavelength of 355 nm and an emission wavelength of 460 nm using a luminescence spectrometer LS50B (Perkin-Elmer Ltd., Buckinghamshire, England) (Wu & Yen, 2005). The test was conducted using aminoguanidine as a positive control group. The concentration of each test sample showing 50% inhibitory activity (IC50) was estimated from the least squares regression line of logarithmic concentrations plotted against the residual activity.

crosslinking of AGEs = test: N-acetyl-glycyl-lysine-methyl ester D-ribose assay, crosslinking of AGEs (late stage); format: biochemical; conditions: for IC50: read-out: IC50 (AGE crosslinking, late stage)
Method: (3) N-acetyl-glycyl-lysine-methyl ester D-ribose assay on crosslinking of AGEs (late stage)
This test was used to evaluate the ability of the sample to inhibit crosslinking of GK peptides in the presence of D-ribose using the method described by Rahbar et al. (1999). The GK peptide (26.7 mg/mL) was incubated with D-ribose (200 mg/mL) under aseptic conditions in sodium phosphate buffer (0.5 M, pH 7.4) at 37° C. for 24 hours. The synthesized compound was added to the model system at a final concentration of 1 mM, excluding the aminoguanidine used at 10 mM and 50 mM. At the end of the incubation period, fluorescence intensity was measured at an excitation wavelength of 335 nm and an emission wavelength of 460 nm.

[1] = Solubility analysis in distilled water (HPLC); format: physicochemical; conditions: for solubility in water, times higher than Comparative Example 1: versus Comparative Example 1
Method: The chrysin and derivatives thereof were dissolved in distilled water and sonicated for 1 hour to maximize solubility and incubated at 37° C. After sonication, undissolved samples were removed by centrifugation (7000 g, 37° C., 5 min). The concentration of the sample was analyzed by HPLC by diluting the supernatant with methanol and filtering through a 0.45 μm disposable syringe filter (Advantec, Dublin, Calif., USA).

[2] = tested on: formation of Amadori compound; test: Hemoglobin-δ-gluconolactone assay, formation of Amadori compound (initial stage); format: biochemical, human; conditions: for initial inhibitory activity, times higher than the positive control: versus positive control group (aminoguanidine)
Method: (1) Analysis of Hemoglobin-δ-Gluconolactone with Respect to Formation of Amadori Compound (Initial Stage)
Evaluation of the initial stage of protein glycosylation was determined by δ-gluconolactone assay (Rahbar et al., 1999). Briefly, fresh human blood (50 mg/mL) was cultured with glucose (144 mg/mL) in a phosphate buffer (pH 7.4) containing 0.2 g/L of NaN3 under conditions of […] at 37° C. for 7 days.
In certain experiments, an indicated sample was added in a concentration range of 0.01 to 1 mM to a model system. Fluorescence of the sample was measured at maximum excitation and emission values of 355 nm and 460 nm, respectively. The test was conducted using aminoguanidine, a known inhibitor, as a positive control group.

RAW 264.7 cells = test: NO production in LPS-induced RAW 264.7 cells (Griess reagent); format: cell-based; conditions: 24 hours, FIG. 1A
Method: The cytotoxicity of chrysin and derivatives thereof in RAW 264.7 cells was investigated using a MTS assay kit. Cells (1.6×10^4/well) were cultured in 96-well plates and treated with samples (10, 25 and 100 μM) for 12, 24, 48 and 72 hours. After culture, a MTS solution was incubated at 20 μL/well at 37° C. in a humidified 5% CO2 atmosphere for 90 minutes. The optical density at 490 nm was measured three times using an EL-800 universal microplate reader (Bio-Tek Instrument Inc., Winooski, USA). The cell viability of a untreated group was set at 100%. RAW 264.7 cells were seeded at a density of 4×10^5 cells/well on a 12-well plate and incubated with LPS (1 μg/mL) and samples of various concentrations for 24 hours. The concentration of […] (NO) in the medium was measured using a Griess reagent system described by the manufacturer. The production of NO was measured at 570 nm using an EL-800 Universal microplate reader (Bio-Tek Instrument Inc., Winooski, USA) and compared with the nitrite standard calibration curve.

| IC50 (crosslinking of AGEs) | solubility at 1 h ([1]; distilled water, water, thermodynamic from solid, 37° C.) | SMILES | activity against AGE formation, times higher than the positive control group (AGE formation; versus aminoguanidine) | inhibitory activity (late stage) (crosslinking of AGEs; at a concentration of 10.0 mg/mL) | Solubility in water ([1]; 37° C.) | IC50 (AGE formation) | initial inhibitory activity, times higher than the positive control [2] | solubility in water, times higher than Comparative Example 1 [1] | inhibitory activity against formation of the Amadori compound, times higher than chrysin ([2]; versus chrysin) | IC50 (crosslinking of AGEs; unit inferred) | effect on NO production (RAW 264.7 cells) |
| --- | --- | --- | --- | --- | --- | --- | --- | --- | --- | --- | --- |
| – | – | O=c1cc(-c2ccccc2)oc2cc(O)cc(O)c12 [Comparative Example 1, 5,7-dihydroxy-2-phenyl-4H-chromen-4-one, reference compound] | 5.48 times | did not exhibit inhibitory activity | 30 µM (≈ 7.63 µg/mL) | – | – | – | – | – | – |
| 1900 µM | 30 µM (≈ 2.22 µg/mL) | N=C(N)NN [Positive control group (Aminoguanidine), aminoguanidine, reference compound] | – | – | – | 137 µM | – | – | – | – | – |
| – | – | CC(=O)Oc1cc(O)c2c(=O)cc(-c3ccccc3)oc2c1 [Synthesis Example 1, 5-hydroxy-4-oxo-2-phenyl-4H-chromen-7-yl acetate] | – | – | 86 µM | 21.6 µM | 4.66 times | 2.87 times | – | – | – |
| – | – | CC(=O)Oc1cc(OC(C)=O)c2c(=O)cc(-c3ccccc3)oc2c1 [Synthesis Example 2, 4-oxo-2-phenyl-4H-chromen-5,7-diyl diacetate] | – | – | 265 µM | 0.91 µM | 422.07 times | 8.83 times | 66.96 times | 22.3 µM | inhibited NO in a concentration-dependent manner |
| – | – | COc1cc(OC)c2c(=O)cc(-c3ccccc3)oc2c1 [Synthesis Example 5, 5,7-dimethoxy-2-phenyl-4H-chromen-4-one] | – | – | – | 41.8 µM | 13.92 times | – | – | 39.9 µM | – |
